Laboratory results taken from patent US20150025077A1 (COYOTE PHARMACEUTICALS, INC., priority 2012, published 2015).

What follows are molecules tested on HSP70 (assay: HSP70 levels in Neuro 2a cells, ELISA). Details: 10 nM, 48 hrs compound then 24 hrs GGTI-298.
Assay type: cell-based, mouse
Experimental: Mouse neuroblastoma 2a cells were cultured in DMEM with 10% FBS for 24 hrs. […] After 24 hrs cells were harvested and lysates were prepared and analyzed by ELISA for HSP70. Compound ID numbers in table refer to structures in Table 1 and Table 2.
With `CC(C)=CCC/C(C)=C/CC/C(C)=C/COC(=S)NC1CC1` [Compound 9d, Cyclopropyl 2E, 6E-farnesyl thiocarbamate] the “HSP70 level, ELISA signal (absence of compounds normalized as 1.00)” value was 1.05.
In the case of `CC(C)=CCC/C(C)=C/CC/C(C)=C/COC(=S)NCCCN1CCOCC1` [Compound 9k, Morpholinyl-N-3′-propyl 2E, 6E-farnesyl thiocarbamate], the “HSP70 level, ELISA signal (absence of compounds normalized as 1.00)” value is reported as 1.13.

Same assay, conditions: 100 nM, 48 hrs compound then 24 hrs GGTI-298
With `CC(C)=CCC/C(C)=C/CC/C(C)=C/CC/C(C)=C/CCC(C)OC(=O)NC(C)C` (racemic) [Compound 23a, 5E, 9E, 13E-Geranylgeranyl-rac-prop-2-yl iso-propyl carbamate] the “HSP70 level, ELISA signal (absence of compounds normalized as 1.00)” value was 1.21.
For `CCCCCNC(=O)OC(C)CC/C=C(\C)CC/C=C(\C)CC/C=C(\C)CCC=C(C)C` (racemic) [Compound 23b, 5E, 9E, 13E-Geranylgeranyl-rac-prop-2-yl n-pentyl carbamate], the “HSP70 level, ELISA signal (absence of compounds normalized as 1.00)” value was 1.13.
With `CC(C)=CCC/C(C)=C/CC/C(C)=C/CC/C(C)=C/CCC(C)OC(=O)NC1CCCC1` (racemic) [Compound 23c, Cyclopentyl 5E, 9E, 13E-geranylgeranyl-rac-prop-2-yl carbamate] the “HSP70 level, ELISA signal (absence of compounds normalized as 1.00)” value was 0.96.
`CC(C)=CCC/C(C)=C/CC/C(C)=C/CC/C(C)=C/CCC(C)OC(=O)NC1CCCCCC1` (racemic) [Compound 23e, Cycloheptyl 5E, 9E, 13E-geranylgeranyl-rac-prop-2-yl carbamate] was tested, and the “HSP70 level, ELISA signal (absence of compounds normalized as 1.00)” value was 0.97.
`CCCCCCNC(=O)OC(C)CC/C=C(\C)CC/C=C(\C)CC/C=C(\C)CCC=C(C)C` (racemic) [Compound 23f, 5E, 9E, 13E-Geranylgeranyl-rac-prop-2-yl n-hexyl carbamate] was tested, and the “HSP70 level, ELISA signal (absence of compounds normalized as 1.00)” value was 0.91.
With `CC(C)=CCC/C(C)=C/CC/C(C)=C/CC/C(C)=C/COC(=O)NCc1ccco1` [Compound 7aa, 2′-Furanyl methyl 2E, 6E, 10E]-geranylgeranyl carbamate] the “HSP70 level, ELISA signal (absence of compounds normalized as 1.00)” value was 1.05.
For `CC(C)=CCC/C(C)=C/CC/C(C)=C/CC/C(C)=C/COC(=O)Nc1ccccc1` [Compound 7n, Phenyl 2E, 6E, 10E-geranylgeranyl carbamate], the “HSP70 level, ELISA signal (absence of compounds normalized as 1.00)” value was 1.20.
`COc1ccc(NC(=O)OC/C=C(\C)CC/C=C(\C)CC/C=C(\C)CCC=C(C)C)cc1OC` [Compound 7t, 3′,4′-Dimethoxyphenyl 2E, 6E, 10E-geranylgeranyl carbamate] was tested, and the “HSP70 level, ELISA signal (absence of compounds normalized as 1.00)” value was 1.07.
In the case of `CC(C)=CCC/C(C)=C/CC/C(C)=C/CC/C(C)=C/COC(=O)Nc1ccc(C(=O)c2ccccc2)cc1` [Compound 7u, p-Benzoyl phenyl 2E, 6E, 10E-geranylgeranyl carbamate], the “HSP70 level, ELISA signal (absence of compounds normalized as 1.00)” value is reported as 1.03.
For `CC(C)=CCC/C(C)=C/CC/C(C)=C/CC/C(C)=C/COC(=O)Nc1cccnc1` [Compound 7z, 3′-Pyridyl 2E, 6E,10E-geranylgeranyl carbamate], the “HSP70 level, ELISA signal (absence of compounds normalized as 1.00)” value was 0.96.
For `CC(C)=CCC/C(C)=C/CC/C(C)=C/CC/C(C)=C/COC(=S)Nc1ccccc1` [Compound 10k, Phenyl 2E,6E,10E-geranylgeranyl thiocarbamate], the “HSP70 level, ELISA signal (absence of compounds normalized as 1.00)” value was 1.11.

Same assay, conditions: 10uM, 48 hrs compound then 24 hrs GGTI-298
In the case of `CC(C)=CCC/C(C)=C/CC/C(C)=C/CC/C(C)=C/COC(=O)c1cc([N+](=O)[O-])cc([N+](=O)[O-])c1` [Compound 2g, 2E, 6E, 10E-Geranylgeranyl-3′,5′-dinitrobenzoate], the “HSP70 level, ELISA signal (absence of compounds normalized as 1.00)” value is reported as 0.91.
In the case of `COc1cc(C(=O)OC/C=C(\C)CC/C=C(\C)CC/C=C(\C)CCC=C(C)C)cc(OC)c1OC` [Compound 2h, 2E, 6E, 10E-Geranylgeranyl-3′,4′,5′-trimethoxybenzoate], the “HSP70 level, ELISA signal (absence of compounds normalized as 1.00)” value is reported as 0.94.
With `CCOc1ccccc1C(=O)OC/C=C(\C)CC/C=C(\C)CC/C=C(\C)CCC=C(C)C` [Compound 2j, 2E, 6E, 10E-Geranylgeranyl-2′ethoxybenzoate] the “HSP70 level, ELISA signal (absence of compounds normalized as 1.00)” value was 0.95.
In the case of `COc1ccc(C(=O)OC/C=C(\C)CC/C=C(\C)CC/C=C(\C)CCC=C(C)C)c(OC)c1` [Compound 2k, 2E, 6E, 10E-Geranylgeranyl-2′,4′-dimethoxybenzoate], the “HSP70 level, ELISA signal (absence of compounds normalized as 1.00)” value is reported as 0.88.
`CC(C)=CCC/C(C)=C/CC/C(C)=C/CC/C(C)=C/COC(=O)c1c(C)cc(C)cc1C` [Compound 2l, 2E, 6E, 10E-Geranylgeranyl-2′,4′,6′trimethylbenzoate] was tested, and the “HSP70 level, ELISA signal (absence of compounds normalized as 1.00)” value was 1.05.
With `CC(C)=CCC/C(C)=C/CC/C(C)=C/COS(=O)(=O)c1ccccc1` [Compound 6a, 2E, 6E-Farnesyl benzenesulfonate] the “HSP70 level, ELISA signal (absence of compounds normalized as 1.00)” value was 1.11.
In the case of `CC(C)=CCC/C(C)=C/CC/C(C)=C/COS(=O)(=O)c1ccc(C)cc1` [Compound 6b, 2E, 6E-Farnesyl p-toluenesulfonate], the “HSP70 level, ELISA signal (absence of compounds normalized as 1.00)” value is reported as 1.18.
`C=CCNC(=O)OC/C=C(\C)CC/C=C(\C)CC/C=C(\C)CCC=C(C)C` [Compound 7k, Allyl 2E, 6E, 10E-geranylgeranyl carbamate] was tested, and the “HSP70 level, ELISA signal (absence of compounds normalized as 1.00)” value was 1.20.
`CC(C)=CCC/C(C)=C/CC/C(C)=C/CC/C(C)=C/COC(=O)NCc1ccccc1` [Compound 7l, Benzyl 2E, 6E, 10E-geranylgeranyl carbamate] was tested, and the “HSP70 level, ELISA signal (absence of compounds normalized as 1.00)” value was 1.10.
In the case of `CC(C)=CCC/C(C)=C/CC/C(C)=C/CC/C(C)=C/COC(=O)Nc1ccc(C)cc1` [Compound 7o, P-Tolyl 2E, 6E, 10E-geranylgeranyl carbamate], the “HSP70 level, ELISA signal (absence of compounds normalized as 1.00)” value is reported as 1.15.
In the case of `CCOC(=O)CNC(=O)OC/C=C(\C)CC/C=C(\C)CC/C=C(\C)CCC=C(C)C` [Compound 7p, Ethoxycarbonyl methyl 2E, 6E, 10E-geranylgeranyl carbamate], the “HSP70 level, ELISA signal (absence of compounds normalized as 1.00)” value is reported as 1.00.
`CC(C)=CCC/C(C)=C/CC/C(C)=C/CC/C(C)=C/COC(=O)Nc1cccc2ccccc12` [Compound 7r, 1′-Naphthyl 2E, 6E, 10E-geranylgeranyl carbamate] was tested, and the “HSP70 level, ELISA signal (absence of compounds normalized as 1.00)” value was 0.89.
In the case of `COc1cc(NC(=O)OC/C=C(\C)CC/C=C(\C)CC/C=C(\C)CCC=C(C)C)cc(OC)c1OC` [Compound 7v, 3′,4′,5′-Trimethoxyphenyl 2E, 6E, 10E-geranylgeranyl carbamate], the “HSP70 level, ELISA signal (absence of compounds normalized as 1.00)” value is reported as 1.13.
In the case of `CC(C)=CCC/C(C)=C/CC/C(C)=C/CC/C(C)=C/COC(=O)Nc1ccc2c(c1)Cc1ccccc1-2` [Compound 7x, 9′H-Fluoren-2′-yl isocyanate 2E, 6E, 10E-geranylgeranyl carbamate], the “HSP70 level, ELISA signal (absence of compounds normalized as 1.00)” value is reported as 1.00.
`CC(C)=CCC/C(C)=C/CC/C(C)=C/COC(=O)NC(C)C` [Compound 8a, iso-Propyl 2E,6E-farnesyl carbamate] was tested, and the “HSP70 level, ELISA signal (absence of compounds normalized as 1.00)” value was 1.33.
With `CC(C)=CCC/C(C)=C/CC/C(C)=C/COC(=O)NC1CCCC1` [Compound 8c, Cyclopentyl 2E, 6E-farnesyl carbamate] the “HSP70 level, ELISA signal (absence of compounds normalized as 1.00)” value was 1.46.
`CC(C)=CCC/C(C)=C/CC/C(C)=C/COC(=O)NC1CCCCCC1` [Compound 8d, Cycloheptyl 2E, 6E-farnesyl carbamate] was tested, and the “HSP70 level, ELISA signal (absence of compounds normalized as 1.00)” value was 1.33.
With `CC(C)=CCC/C(C)=C/CC/C(C)=C/COC(=O)NC12CC3CC(CC(C3)C1)C2` [Compound 8e, Adamantyl 2E, 6E-farnesyl carbamate] the “HSP70 level, ELISA signal (absence of compounds normalized as 1.00)” value was 1.09.
In the case of `CCNC(=O)OC/C=C(\C)CC/C=C(\C)CCC=C(C)C` [Compound 8h, Ethyl 2E, 6E-farnesyl carbamate], the “HSP70 level, ELISA signal (absence of compounds normalized as 1.00)” value is reported as 0.86.
With `CCOC(=O)CNC(=O)OC/C=C(\C)CC/C=C(\C)CCC=C(C)C` [Compound 8k, Carboethoxymethyl 2E, 6E-farnesyl carbamate] the “HSP70 level, ELISA signal (absence of compounds normalized as 1.00)” value was 0.99.
For `CC(C)=CCC/C(C)=C/CC/C(C)=C/COC(=O)Nc1ccc(C)cc1` [Compound 8l, p-Tolyl 2E, 6E-farnesyl carbamate], the “HSP70 level, ELISA signal (absence of compounds normalized as 1.00)” value was 1.03.
For `CC(C)=CCC/C(C)=C/CC/C(C)=C/COC(=O)Nc1ccc(C(F)(F)F)cc1` [Compound 8n, p-Trifluoromethylphenyl 2E, 6E-farnesyl carbamate], the “HSP70 level, ELISA signal (absence of compounds normalized as 1.00)” value was 1.02.
`CCNC(=S)OC/C=C(\C)CC/C=C(\C)CCC=C(C)C` [Compound 9a, Ethyl 2E, 6E-farnesyl thiocarbamate] was tested, and the “HSP70 level, ELISA signal (absence of compounds normalized as 1.00)” value was 0.94.
For `CCC(C)NC(=S)OC/C=C(\C)CC/C=C(\C)CCC=C(C)C` (stereo not drawn) [Compound 9b, sec-Butyl 2E, 6E-farnesyl thiocarbamate], the “HSP70 level, ELISA signal (absence of compounds normalized as 1.00)” value was 0.99.
In the case of `CCCCNC(=S)OC/C=C(\C)CC/C=C(\C)CCC=C(C)C` [Compound 9c, n-Butyl 2E, 6E-farnesyl thiocarbamate], the “HSP70 level, ELISA signal (absence of compounds normalized as 1.00)” value is reported as 0.96.
`CC(C)=CCC/C(C)=C/CC/C(C)=C/COC(=S)NC1CC1` [Compound 9d, Cyclopropyl 2E, 6E-farnesyl thiocarbamate] was tested, and the HSP70 level, ELISA signal (absence of compounds normalized as 1.00) was 0.95.
With `CC(C)=CCC/C(C)=C/CC/C(C)=C/COC(=S)NCCCN1CCOCC1` [Compound 9k, Morpholinyl-N-3′-propyl 2E, 6E-farnesyl thiocarbamate] the “HSP70 level, ELISA signal (absence of compounds normalized as 1.00)” value was 0.97.
With `CNC(=S)OC/C=C(\C)CC/C=C(\C)CC/C=C(\C)CCC=C(C)C` [Compound 10a, Methyl 2E,6E,10E-geranylgeranyl thiocarbamate] the “HSP70 level, ELISA signal (absence of compounds normalized as 1.00)” value was 1.17.
For `CCC(C)NC(=S)OC/C=C(\C)CC/C=C(\C)CC/C=C(\C)CCC=C(C)C` (stereo not drawn) [Compound 10c, sec-Butyryl 2E,6E,10E-geranylgeranyl thiocarbamate], the “HSP70 level, ELISA signal (absence of compounds normalized as 1.00)” value was 1.53.
With `CC(=O)NC(=S)OC/C=C(\C)CC/C=C(\C)CC/C=C(\C)CCC=C(C)C` [Compound 10g, Acetyl 2E,6E,10E-geranylgeranyl thiocarbamate] the “HSP70 level, ELISA signal (absence of compounds normalized as 1.00)” value was 1.60.
For `CCCCCCNC(=S)OC/C=C(\C)CC/C=C(\C)CC/C=C(\C)CCC=C(C)C` [Compound 10h, n-Hexyl 2E,6E,10E-geranylgeranyl thiocarbamate], the “HSP70 level, ELISA signal (absence of compounds normalized as 1.00)” value was 1.58.
For `CC(C)=CCC/C(C)=C/CC/C(C)=C/c1cnco1` [Compound 12, 5-((1E,5E)-2,6,10-trimethylundeca-1,5,9-trien-1-yl)oxazole], the “HSP70 level, ELISA signal (absence of compounds normalized as 1.00)” value was 1.01.
